{"source": "paper PMC6201930", "about": "(PLoS ONE, 2018)", "key": {"Male Sprague Dawley rats": {"system": "Male Sprague Dawley rats", "test": "Fourteen day safety study in rats", "assay_type": "in vivo", "conditions": "for Animals completed study: 6 rats per group; for hematology: numbers of red and white blood cells or platelets vs vehicle: 14 days dosing, all dose groups; for accumulation over time (toxicokinetics): Day 1 and Day 14; for histopathology of liver and bone marrow: end of the 14 day dosing period; for urine lipocalin / urine albumin, clusterin, cystatin C and osteopontin: highest dose groups: G418 20 mg/kg, gentamicin X2 40 mg/kg; for urine albumin, clusterin, cystatin C and osteopontin: normalized to urinary creatinine", "method": "To evaluate in vivo safety we administered the compounds daily to rats (n = 6 rats per dose group) by subcutaneous injection for 14 days.\nMale Sprague Dawley rats were purchased from Charles River Laboratories, where 6 weeks old at time of study initiation. Rats were group-housed (3 rats per box) in solid bottom cages. Food and water were provided ad libitum. Rats were dosed daily by subcutaneous injection. […] Blood was collected for serum chemistry by retro-orbital bleeds on Day 7 and by terminal cardiac puncture on Day 14. For urine collection, rats were housed in metabolic cages for 6 hours. Toxicokinetics was evaluated on Day 1 and Day 14 (S4 Fig). Blood was obtained by retro-orbital bleeding at 0, 0.25, 0.75, 1.5, 4, 7, 24 hours post-dose. Rats were euthanized on Day 14, 24 hours after the last dose. Body weights were measured on Days 3, 6, 9, 12 and 14. Endpoints to evaluate kidney function included serum chemistry (BUN and creatinine; Day 7 and Day 14), urine biomarkers (albumin, clusterin, cystatin C, osteopontin, KIM1, and alpha GST; Day 6 and Day 9), hematology (Day 14) and histopathology. For histopathology, kidney, liver, and bone marrow were evaluated. Samples collected for histopathology were sectioned at 5 μm, stained with hematoxylin and eosin (H&E), and examined by a board certified veterinary pathologist. BUN, creatine and hematology parameters were measured using a HESKA veterinary system (Loveland, CO). Urine samples were assayed using MSD electrochemiluminescent immunoassay. Samples were analyzed in triplicate using a Sector Imager 6000 instrument (MSD, Rockville, Maryland). Kits used were the Rat Kidney Injury Panel 1 (albumin, Kim-1, NGAL/lipocalin-2, osteopontin), the Argutus Acute Kidney Injury Panel (α-GST, GSTYb1, RPA-1) and the Clusterin Test Kit (MSD), according to the manufacturer’s instructions. Urinary biomarker concentrations were normalized to urinary creatinine to account for differences in urine production and flow rates."}, "[1]": {"system": "zebrafish neuromasts (hair cells)", "test": "Neuromast toxicity assay (DASPEI staining)", "conditions": "read-out: Neuromast CC50; individual determinations (S1 File)"}, "in vivo": {"test": "in vivo", "conditions": "zebrafish"}, "[2]": {"system": "fLuc mRNA harboring a UGA nonsense mutation at codon 190 (fLuc-190-NS)", "assay_type": "biochemical, rabbit", "source_text": "ThefLuc-190-NS assay is an in vitro rabbit reticulocyte lysate translation of an fLuc mRNA harboring a UGA nonsense mutation at codon 190 (fLuc-190-NS). It is believed that positively charged aminoglycosides are poorly taken up by cells, and we used this cell-free readthrough assay to eliminate the potential variable of cell uptake when measuring readthrough potency. […] Readthrough protein was detected using a HA-HIS MSD immunoassay described previously.\nThis cell-free translation assay used synthetic LUC mRNAs harboring an EMCV IRES and LUC codon 190-UGA premature stop codon prepared using the MegaScript in vitro transcription kit (Ambion). Translation reactions were done with the Rabbit Reticulocyte Lysate System (Promega) with 100 ng RNA and increasing concentrations of aminoglycosides. The amount of luminescence produced was determined after approximately 4 hours using a Viewlux CCD imager (Perkin-Elmer). Fold suppression over background was calculated as (aminoglycoside light units/PBS light units)."}, "[3]": {"test": "Neuromast toxicity assay (DASPEI staining)", "conditions": "zebrafish, zebrafish embryos 5 dpf, neuromasts (hair cells), other: embryos exposed to the drug in 24-well plates, zebrafish embryos 5 dpf"}, "primary mouse myoblasts": {"system": "primary mouse myoblasts", "test": "Cytotoxicity in myoblasts", "conditions": "read-out: Myoblast CC50; individual determinations (S1 File)"}, "[4]": {"conditions": "10 mg/kg daily s.c. 14 days, 6 kidneys examined"}, "[5]": {"conditions": "20 mg/kg daily s.c. 14 days, kidneys examined: X2 6, G418 3"}, "[6]": {"conditions": "AVERAGE (S1 File), unit not given for EC5X"}, "[7]": {"conditions": "individual experiments (S1 File)"}, "[8]": {"conditions": "individual experiments (S1 File), unit not printed for EC5X (EC2X of the sheet in uM)"}, "[9]": {"conditions": "40 mg/kg daily s.c. 14 days, 6 kidneys examined, listed as X2"}, "[10]": {"conditions": "40 mg/kg daily s.c. 14 days, 6 kidneys examined, listed as gentamicin X2"}}, "note": "Values joined by “and” are separate entries in the source; they are usually repeats but may differ in a detail not shown here. Identical values can stand only once. “Also recorded” adds a separate entry of the source. Like-named read-outs stand apart in the source and are kept apart here.", "data": [{"smiles": "CN[C@@H]1[C@@H](O)[C@@H](O[C@@H]2[C@@H](O)[C@H](O[C@H]3O[C@H]([C@@H](C)O)[C@@H](O)[C@H](O)[C@H]3N)[C@@H](N)C[C@H]2N)OC[C@]1(C)O", "note": "[G418, reference compound]", "values": [{"measurement": "Animals completed study", "setting": "Male Sprague Dawley rats; 10 mg/kg daily s.c. 14 days", "result": 6}, {"measurement": "Kidneys: Mineralization (number of kidneys)", "setting": "Male Sprague Dawley rats; [4]", "result": 1}, {"measurement": "Kidneys: Pelvic dilation (number of kidneys)", "setting": "Male Sprague Dawley rats; [4]", "result": 2}, {"measurement": "Kidneys: Tubular necrosis (number of kidneys)", "setting": "Male Sprague Dawley rats; [4]", "result": 4}, {"measurement": "Animals completed study", "setting": "Male Sprague Dawley rats; 20 mg/kg daily s.c. 14 days", "result": 3}, {"measurement": "Kidneys: Mineralization (number of kidneys)", "setting": "Male Sprague Dawley rats; [5]", "result": 0}, {"measurement": "rats euthanized or found dead", "setting": "Male Sprague Dawley rats; 20 mg/kg daily s.c., 14 days, 6 rats", "result": "three rats were either euthanized or found dead"}, {"measurement": "creatinine and blood urea nitrogen (BUN) levels", "setting": "Male Sprague Dawley rats; 20 mg/kg, Days 7 and 14, p<0.05 vs vehicle", "result": "significantly elevated"}, {"measurement": "hematology: numbers of red and white blood cells or platelets vs vehicle", "setting": "Male Sprague Dawley rats", "result": "no obvious differences across groups"}, {"measurement": "accumulation over time (toxicokinetics)", "setting": "Male Sprague Dawley rats", "result": "no accumulation"}, {"measurement": "urine alpha-GST levels", "setting": "Male Sprague Dawley rats; G418 20 mg/kg compared to gentamicin X2 40 mg/kg", "result": "greatest decrease"}, {"measurement": "histopathology of liver and bone marrow", "setting": "Male Sprague Dawley rats", "result": "No histopathology findings"}, {"measurement": "urine lipocalin", "setting": "Male Sprague Dawley rats", "result": "not affected"}, {"measurement": "urine albumin, clusterin, cystatin C and osteopontin", "setting": "Male Sprague Dawley rats", "result": "increased"}, {"measurement": "CC50", "setting": "[1]", "result": 3.6, "unit": "µM"}, {"measurement": "CC50", "setting": "in vivo; Neuromast (CC50), zebrafish embryos 5 dpf, 24 hours exposure, maximum of two measurements", "result": "2.8 ± 1.2", "unit": "µM"}, {"measurement": "CC50", "setting": "in vivo; Neuromast CC50, individual determinations (S1 File)", "result": 1.9, "unit": "µM"}, {"measurement": "fLuc-190-NS EC2X", "setting": "[2]; AVERAGE (S1 File)", "result": 0.0064, "unit": "µM"}, {"measurement": "fLuc-190-NS MaxFold", "setting": "[2]; AVERAGE (S1 File)", "result": 53.0}, {"measurement": "fLuc-190-NS EC5X", "setting": "[2]; [6]", "result": 0.0260}, {"measurement": "fLuc-190-NS EC2X", "setting": "[2]; cell-free, average ± SD", "result": "0.0064 ± 0.0002", "unit": "µM"}, {"measurement": "fLuc-190-NS MaxFold", "setting": "[2]; cell-free, average ± SD", "result": "53 ± 2", "unit": "fold"}, {"measurement": "fLuc-190-NS EC2X", "setting": "[2]; [7]", "result": "0.0067 µM and 0.0063 µM"}, {"measurement": "fLuc-190-NS MaxFold", "setting": "[2]; [7]", "result": "51.05 and 54.30 and 53.65"}, {"measurement": "fLuc-190-NS EC5X", "setting": "[2]; [8]", "result": "0.0261 and 0.0252 and 0.0267"}]}, {"smiles": "CN[C@@H]1[C@@H](O)[C@@H](O[C@@H]2[C@@H](O)[C@H](O[C@H]3O[C@H](CO)[C@@H](O)[C@H](O)[C@H]3N)[C@@H](N)C[C@H]2N)OC[C@]1(C)O", "note": "(stereo in doubt) [Gentamicin X2, gentamicin X2]", "values": [{"measurement": "Animals completed study", "setting": "Male Sprague Dawley rats; 10 mg/kg daily s.c. 14 days", "result": 6}, {"measurement": "Kidneys: Mineralization (number of kidneys)", "setting": "Male Sprague Dawley rats; [4]", "result": 0}, {"measurement": "Kidneys: Pelvic dilation (number of kidneys)", "setting": "Male Sprague Dawley rats; [4]", "result": 0}, {"measurement": "Kidneys: Tubular necrosis (number of kidneys)", "setting": "Male Sprague Dawley rats; [4]", "result": 2}, {"measurement": "Animals completed study", "setting": "Male Sprague Dawley rats; 20 mg/kg daily s.c. 14 days", "result": 6}, {"measurement": "Kidneys: Mineralization (number of kidneys)", "setting": "Male Sprague Dawley rats; [5]", "result": 0}, {"measurement": "Kidneys: Pelvic dilation (number of kidneys)", "setting": "Male Sprague Dawley rats; [5]", "result": 1}, {"measurement": "Kidneys: Tubular necrosis (number of kidneys)", "setting": "Male Sprague Dawley rats; [5]", "result": 2}, {"measurement": "effect on body weight", "setting": "Male Sprague Dawley rats; 20 mg/kg daily s.c., 14 days", "result": "did not affect body weight"}, {"measurement": "Animals completed study", "setting": "Male Sprague Dawley rats; 40 mg/kg daily s.c. 14 days", "result": 6}, {"measurement": "Kidneys: Mineralization (number of kidneys)", "setting": "Male Sprague Dawley rats; 40 mg/kg daily s.c. 14 days, 6 kidneys examined", "result": 0}, {"measurement": "Kidneys: Pelvic dilation (number of kidneys)", "setting": "Male Sprague Dawley rats; [9]", "result": 4}, {"measurement": "Kidneys: Tubular necrosis (number of kidneys)", "setting": "Male Sprague Dawley rats; [9]", "result": 4}, {"measurement": "Kidneys: Pelvic dilation (number of kidneys)", "setting": "Male Sprague Dawley rats; [10]", "result": "four of six kidneys"}, {"measurement": "Kidneys: Tubular necrosis (number of kidneys)", "setting": "Male Sprague Dawley rats; [10]", "result": "four of six kidneys"}, {"measurement": "effect on body weight", "setting": "Male Sprague Dawley rats; 40 mg/kg daily s.c., 14 days", "result": "only slightly reduced body weight"}, {"measurement": "hematology: numbers of red and white blood cells or platelets vs vehicle", "setting": "Male Sprague Dawley rats", "result": "no change; also recorded: no obvious differences across groups"}, {"measurement": "accumulation over time (toxicokinetics)", "setting": "Male Sprague Dawley rats", "result": "no accumulation"}, {"measurement": "tolerability", "setting": "Male Sprague Dawley rats; all dose levels, 14 days daily s.c.", "result": "well-tolerated at all dose levels"}, {"measurement": "rats found dead or euthanized", "setting": "Male Sprague Dawley rats; any of the three dose groups (10, 20, 40 mg/kg), 14 days", "result": "No rats were found dead or euthanized"}, {"measurement": "histopathology of liver and bone marrow", "setting": "Male Sprague Dawley rats", "result": "No histopathology findings"}, {"measurement": "urine lipocalin", "setting": "Male Sprague Dawley rats", "result": "not affected"}, {"measurement": "urine albumin, clusterin, cystatin C and osteopontin", "setting": "Male Sprague Dawley rats", "result": "not increased"}, {"measurement": "CC50 at 24 h", "setting": "[3]; Neuromast (CC50), 24 hours exposure, maximum of two measurements", "result": "14 ± 7", "unit": "µM"}, {"measurement": "CC50 at 24 h", "setting": "[3]; Neuromast CC50, AVERAGE (S1 File)", "result": 13.9, "unit": "µM"}, {"measurement": "CC50", "setting": "[1]", "result": "8.7 µM and 19 µM"}, {"measurement": "CC50", "setting": "primary mouse myoblasts", "result": "614 µM and 402 µM and 481 µM and 324 µM and 1880 µM and 1300 µM"}, {"measurement": "fLuc-190-NS EC2X", "setting": "[2]; AVERAGE (S1 File)", "result": 0.0288, "unit": "µM"}, {"measurement": "fLuc-190-NS MaxFold", "setting": "[2]; AVERAGE (S1 File)", "result": 195.3}, {"measurement": "fLuc-190-NS EC5X", "setting": "[2]; [6]", "result": 0.0696}, {"measurement": "fLuc-190-NS EC2X", "setting": "[2]; cell-free, average ± SD", "result": "0.029 ± 0.009", "unit": "µM"}, {"measurement": "fLuc-190-NS MaxFold", "setting": "[2]; cell-free, average ± SD", "result": "195 ± 18", "unit": "fold"}, {"measurement": "fLuc-190-NS EC2X", "setting": "[2]; [7]", "result": "0.0300 µM and 0.0373 µM and 0.0192 µM"}, {"measurement": "fLuc-190-NS MaxFold", "setting": "[2]; [7]", "result": "193.99 and 177.60 and 214.25"}, {"measurement": "fLuc-190-NS EC5X", "setting": "[2]; [8]", "result": "0.0904 and 0.0449 and 0.0734"}]}]}
